This is an account of results in US20150051246A1 (priority 2013, published 2015).

In data set [1] the test system is xylazine/ketamine induced α2-adrenergic receptor-mediated anesthesia. As to conditions: in vivo, 0.3 mg/kg. From the text:
Since emesis is a typical side-effect of PDE4 inhibitors the emetic potential of roflumilast and rolipram was investigated in parallel using the xylazine/ketamine induced α2-adrenergic receptor-mediated anesthesia test. The results confirmed that the two phosphodiesterase 4 inhibitors have different effects on emesis.

Data set [2] concerns male C57BL/6NCrl mice. In words: Object Location Task (OLT), spatial memory, 24 h retention interval. As to conditions: for d2 index, discrimination index for T2: 3 h after T1, 24 h interval. It is filed as in vivo. From the text:
The objective of this study was to evaluate the cognitive improvement effects of Roflumilast on spatial memory employing Object Location Task (OLT) in male C57BL/6NCrl mice. Roflumilast was compared with data of the already established PDE4 inhibitor Rolipram in the same model.
Twenty-four 7 month-old male C57BL/6NCrl mice (Charles River, L'Arbresle, France) were used (average body weights: 27.6 g). The animals were kept under a 12/12-hour light/dark cycle (lights on from 07.00 pm to 07.00 am) with free access to food and water. All testing was done between 09.00 am and maximally 06.00 pm.
Both rolipram (Sigma-Aldrich St. Louis, USA; MW 275.34) and roflumilast (Biocrea, Radebeul, Germany; MW 403.21) were dissolved in dimethylsulfoxide (DMSO) and kept at 4° C.; this stock solution was used for further dilutions in 0.5% methylcellulose. Each of rolipram and roflumilast is used in form of its free base. All injected solutions consisted of 0.5% methylcellulose with a fixed DMSO percentages (1.2%) (vehicle).
For the Object Location Task (OLT), doses of 0.01 mg/kg, 0.03 mg/kg and 0.1 mg/kg of Rolipram or Roflumilast or vehicle were administered subcutaneously (s.c.). Based on previous findings, PDE4 inhibitor single administration was performed 3 hours after the first trial as this has an optimum effect on object memory performance. The injection volume was 5 μl/g.
The OLT apparatus consisted of a circular arena, 40 cm in diameter. Half of the 40 cm transparent polyvinyl chloride wall was covered from the outside with white paper. Two objects were placed symmetrically about 10 cm away from the wall on the separation line, between the transparent and covered side of the arena. Four different sets of objects were available: (1) a cone made of brass (maximal diameter 6 cm and total height 3.8 cm), (2) a transparent glass bottle (diameter 2.7 cm, height 8.5 cm) filled with sand and water, (3) a massive metal cube (2.5 cm×5 cm×7.5 cm) with two holes (diameter 1.5 cm), and (4) a massive aluminum cube with a tapering top (4.5 cm×4.5 cm×8.5 cm).
A testing session comprised two trials of 4 minutes. Before each trial, mice were placed in an empty Makrolon cage (incubation cage) for the same amount of time as the trial (4 min). During the first trial (T1), two identical objects were placed symmetrically about 10 cm away from the wall on the separation line between the transparent and covered side of the arena. After the first exploration period of 4 min, the mouse was put back in its home cage. Mice then received treatment at 3 hours post T1. Subsequently, after a predetermined delay interval (24 h), the mouse was placed in the apparatus for the second trial of 4 min (T2). Two identical objects as in T1 were used; one object was placed in the previously used position, whereas the other was placed in a novel position. The novel position of the object could either be a fixed distance towards the front or a fixed distance towards the back of the arena for both objects. The times spent exploring each object during T1 and T2 were recorded manually using a personal computer. All objects and locations were used in a balanced manner to exclude possible object and/or location preferences. To avoid olfactory cues, the objects were thoroughly cleaned with 70% ethanol after each trial. The testing order of conditions was determined randomly.
The measurements reflected the time spent by the mice in exploring each object during T1 and T2. The time spent in exploring the two identical samples in T1 were represented by ‘a1’ and ‘a2’, respectively. The time spent in exploring the sample and the new object in T2 were represented by ‘a’ and ‘b’, respectively. From these exploration times the following variables were calculated: e1, e2, and d2 (Table 1). The d2 index is a relative measure of discrimination corrected for exploratory activity. […]

Data set [3] deals with male Wistar rats. In words: Object recognition task (ORT), scopolamine induced memory deficit. It is filed as in vivo. As to the method: Memory acquisition processes are investigated using the object recognition test (ORT).
Twenty four 3-4 month old male Wistar rats (Charles River, Sulzfeld, Germany) were used for the study. All animals were housed individually in standard green line Tecniplast IVC cages on stardust bedding. The animals were housed on a reversed 12/12 h light/dark cycle (lights on from 07:00 pm to 07:00 am) and had free access to food and water. The rats were housed and tested in the same room. A radio, playing softly, provided background noise in the room. All testing was performed between 09:00 am and 06:00 pm.
Drugs were prepared daily, except as indicated otherwise. Roflumilast (Takeda, Konstanz, Germany, MW 403.21) was dissolved in 98% methylcellulose solution (0.5% methylcellulose) and 2% Tween 80. Roflumilast in doses of 0 (vehicle), 0.0001, 0.0003, 0.001, 0.003, 0.01 and 0.03 mg/kg was administered intraperitonally (ip, injection volume 1 ml/kg). […] All compounds were administered 30 min before T1.
The testing order of conditions was determined randomly. The experimenter was blind of testing protocol. A within design was used and all treatment conditions were balanced over rats. The ORT was performed as described elsewhere (Ennaceur and Delaceur, 1988, Behav Brain Res, Vol 31, pp 47-59; Akkerman et al; 2012, Behav Brain Res, Vol 232, pp 335-347). The apparatus consisted of a circular arena, 83 cm in diameter. The back half of the 40 cm high wall was made of grey PVC and the front was made of transparent PVC. Fluorescent red tubes and a light bulb provided a constant illumination of about 20 lux on the floor of the apparatus. The light intensity was equal in the different parts of the apparatus.
Two objects were placed in symmetrical positions at the mid-line between the gray and transparent halves of the arena, about ten centimeters away from wall. Four different sets of objects were available: 1) a standard 1 L brown transparent glass bottle (diameter 10 cm, height 22 cm) filled with water, 2) a metal cube (10.0×5.0×7.5 cm) with two holes (diameter 1.9 cm), 3) a cone consisting of a gray PVC base (maximal diameter 18 cm) with a collar on top made of brass (total height 16 cm), and 4) an aluminum cube with a tapering top (13.0×8.0×8.0 cm). Objects were presented to the animals in a balanced manner to avoid object or place biases. Rats were unable to displace the objects.
A test session comprised two trials, each with durations of 3 min. During the learning trial (T1) the apparatus contains two identical objects (object a1 and a2). Rats were always introduced into the apparatus with their nose towards the transparent wall segment (i.e. facing outwards to the front of the arena). Subsequently, rats were put back in its home cage for a 1 h interval. After the retention interval, rats were put back into the arena for the […] (T2). In T2, the two objects from T1 were replaced by one identical copy (a3) and a different novel object (b). The times spent in exploring each object during T1 and T2 were recorded manually on a personal computer.
Exploration was defined in the following manner: directing the nose to the object at a distance of no more than 2 cm and/or touching the object with the nose. Sitting on the object was not considered as exploratory behavior. In order to avoid the presence of olfactory cues, the objects were thoroughly cleaned with a 70% ethanol solution before each trial.
Prior to compound testing, the animals were handled for 5 min on 2 consecutive days and allowed to explore the ORT arena, also for 5 min. Subsequently, the animals were accustomed to the complete ORT testing procedure without receiving any injection.
The readout parameters of the object recognition task are the times that rats spent on exploring each object during T1 and T2. The exploration time (in seconds) of each object during T1 are presented as “a1” and “a2”.

Data set [4] deals with rats. As to conditions: cited from earlier work.
For data set [5], the system named is rats. As to conditions: cited from earlier work. The source holds these as a separate data set.
The format of data set [6] is in vivo, human. As to conditions: once a day (24 h) repeated dosing. The method, then:
In the above-indicated clinical trial roflumilast was administered once in a single oral dose of 100 mcg, 300 mcg or 1000 mcg. Due to the pharmacokinetics of roflumilast and its metabolite roflumilast-N-oxide and the median plasma half-life of these compounds the steady state plasma concentration levels in a once a day (24 h) repeated dosing regimen of roflumilast/roflumilast-N-oxide is about two-fold compared to the plasma concentration levels following a once a day single dosing.

Data set [7] relates to phosphodiesterase 4. As to conditions: in humans after roflumilast; cited from earlier work.
Data set [8] is classed as in vivo, human. As to conditions: plasma, single dose. From the text: An interim analysis has been performed based on the data of 9 subjects of the Impaired Elderly group and 4 subjects of the Healthy Elderly group. For this purpose, cognitive battery test scores (VLT, SMT, Stroop task and BL-VAS) and concentrations of roflumilast and roflumilast-N-oxide in plasma have been analysed and summarized by dose over each scheduled sampling time using descriptive statistics.

On to `COc1ccc(C2CNC(=O)C2)cc1OC1CCCC1` (stereo not shown) [rolipram], for which the emetic potential result in data set [1] is listed as “strong emetic potential”. Besides, the “d2 index, discrimination index for T2” value in data set [2] (0.01 mg/kg s.c.) is 0.08; in data set [2] (0.03 mg/kg s.c.), 0.13; in data set [2] (0.1 mg/kg s.c.), 0.07. Further, the “dose effective in improving spatial memory” value in data set [2] (s.c.) was determined as 0.03 mg/kg.
Turning to `COc1cc2c(cc1OC)C(=O)C(CC1CCN(Cc3ccccc3)CC1)C2.Cl` (racemic) [donepezil, (±)-2,3-dihydro-5,6-dimethoxy2-[[1-(phenylmethyl)-4-piperidinyl]methyl]-1H-inden-1-one], in data set [3] (scopolamine 0.1 mg/kg + donepezil 0.1 mg/kg p.o.), the d2 was 0.04.
With `O=C(NC1CC1)c1cn(-c2cccc(-c3ccc([C@@H]4C[C@H]4C(=O)O)c(F)c3)c2)c2ncccc2c1=O` [MK-0952], the “novel object recognition (in words)” value in data set [4] is given as “improvement of novel object recognition”. Also, the “Water Maze DMTP test (in words)” value in data set [5] is given as “improvement”.
Consider `O=C(Nc1c(Cl)c[n+]([O-])cc1Cl)c1ccc(OC(F)F)c(OCC2CC2)c1` [roflumilast-N-oxide, 3-cyclopropylmethoxy-4-difluoromethoxy-N-(3,5-dichloro-1-oxypyrid-4-yl)benzamide], for which the “steady state plasma concentration levels compared to single dosing” value in data set [6] is listed as “about two-fold”. For the same compound, in data set [7], the “share of overall phosphodiesterase 4 inhibition” value is “more than 90%”. Also, the exposure result in data set [8] is on record as “consistent with those previously reported”.
For the compound `CN1[C@@H]2C[C@@H](OC(=O)[C@H](CO)c3ccccc3)C[C@H]1[C@@H]1O[C@@H]12` [scopolamine], the d2 in data set [3] (scopolamine 0.1 mg/kg + veh + veh, rof + dpz study) was −0.04; in data set [3] (scopolamine 0.1 mg/kg ip + vehicle, dose response study), 0.01.
